Like-named read-outs stand apart in the source and are kept apart here.
Legend:
[1] = Pharmacokinetics and tissue distribution in BALB/c mice; type: in vivo; conditions: for Vd: read-out: Vss
Procedure: To assess the disposition of FBA-TPQ in vivo, pharmacokinetic studies in BALB/c were conducted. The results of the mean plasma concentration-time curves of FBA-TPQ, and tissue concentration-time curves of FBA-TPQ, after intravenous or intraperitoneal injection in BALB/c mice are presented in Figure 5. Two-compartmental model (WinNonlin 6.0 Model 7, Pharsight Corporation: Mountain View, CA, USA, 2009) was used to analyze the data obtained following intravenous (iv) and intraperitoneal (ip) administration of the compound.
Female BALB/c (18–20 g) mice were purchased from Harlan Laboratories (Indianapolis, IN). All animals were fed with commercial diet and water ad libitum and were on an alternating 12 h light/dark cycle. The mice were randomly divided into groups of three, and were dosed either intravenously (5 mg/kg) or intraperitoneally (10 mg/kg) with FBA-TPQ in PEG 400: ethanol: saline (57.1%:14.3%:28.6%). Before dosing, and at 5, 15, 30, and 60 min, and 2, 4, 8, and 24 h after dosing, groups of animals (three/time point) were anesthetized, and blood was collected from the retro-orbital sinus into heparinized tubes. Plasma was obtained by centrifuging the blood samples at 14,000 rpm for 15 min. FBA-TPQ was then extracted from plasma and stored at −80 °C until analysis. The brain, heart, kidneys, liver, lungs, and spleen were also collected at the same time points during necropsy, blotted on Whatman No. 1 filter paper, trimmed of extraneous fat and connective tissue, weighed, and homogenized in phosphate-buffered saline. The resulting homogenates were stored at −80 °C until further processing and analysis.
The average FBA-TPQ concentrations in plasma and tissues at each of the time points following intravenous and intraperitoneal administrations were used for pharmacokinetic analyses using a one- or two-compartmental model, respectively. The following pharmacokinetic parameters were estimated using Phoenix WinNonlin 6.0 (Mountain View, CA, USA): area under the concentration-time curve (AUC, h·μg/mL), half-life (T½, h), maximum concentration (Cmax, μg/mL), time of the maximum concentration (Tmax, h), and clearance (CL, mL/h/kg), as applicable. Bioavailability (X) was calculated as X = [AUCip × doseiv]/[AUCiv × doseip].

Panc-1 cells = test: MTT cell survival assay, Panc-1; type: cell-based; conditions: Homo sapiens, Panc-1, 72 h, read-out: Cytotoxicity IC50
Procedure: We evaluated the effects of FBA-TPQ on the survival of several human pancreatic cancer cell lines, including HPAC (p53^+/+), Panc-1(p53^+/−), and Mia PaCa-2(p53^+/−), as well as normal IRM90 fetal fibroblast cells (Figure 2a). Cells were exposed to various concentrations of the test compound (0–10 µM) for 72 h, and cell survival rates were determined by the MTT assay, using a procedure reported previously. FBA-TPQ exerted potent effects against the test cancer cell lines, leading to significant decreases in cell viability.
Human pancreatic cancer cells were obtained from the American Type Culture Collection (Rockville, MD). All cell culture media contained 10% FBS and 1% penicillin/streptomycin. […]
The effect of the test compound on human pancreatic cancer cell viability, expressed as the percentage of cell survival, was determined using the MTT (3-(4,5-dimethylthiazol-2-yl)-2,5-diphenyl tetrazolium bromide) assay. […] The absorbance at 570 nm was recorded using an OPTImax microplate reader (Molecular Devices; Sunnyvale, CA, USA). The cell survival percentages were calculated by dividing the mean OD of compound-containing wells by that of DMSO-containing control wells. […]

[2] = female, mouse, brain, ip, 10 mg/kg
[3] = female, mouse, brain, iv, 5 mg/kg
[4] = female, mouse, heart, ip, 10 mg/kg
[5] = female, mouse, heart, iv, 5 mg/kg
[6] = female, mouse, kidneys, ip, 10 mg/kg
[7] = female, mouse, kidneys, iv, 5 mg/kg
[8] = female, mouse, liver, ip, 10 mg/kg
[9] = female, mouse, liver, iv, 5 mg/kg
[10] = female, mouse, lungs, ip, 10 mg/kg
[11] = female, mouse, lungs, iv, 5 mg/kg
[12] = female, mouse, plasma, ip, 10 mg/kg
[13] = female, mouse, plasma, iv, 5 mg/kg
[14] = female, mouse, spleen, ip, 10 mg/kg
[15] = female, mouse, spleen, iv, 5 mg/kg

## O=C1C(NCc2ccc(F)cc2)=CC2=NCCc3c[nH]c1c32 [FBA-TPQ, 7-(4-fluorobenzylamino)-1,3,4,8-tetrahydropyrrolo[4,3,2-de]quinolin-8(1H)-one]
[1]; 4 h after iv injection, 5 mg/kg
  detectability in mouse plasma: no longer detectable
[1]; brain, ip, 10 mg/kg
  Vss: 4.10 mL/g
[1]; [2]
  AUC: 62.3 ng·h/mL
  half-life: 110 min
[1]; [3]
  AUC: 138 ng·h/mL
  half-life: 15.1 min
  Vd: 18.7 L/kg
[1]; female, mouse, brain, iv, 5 mg/kg, read-out: Cl (converted)
  clearance: 575 mL/min/kg
[1]; [4]
  AUC: 2360 ng·h/mL
  half-life: 32.5 min
[1]; [5]
  AUC: 2000 ng·h/mL
  half-life: 30.1 min
  Vd: 1.77 L/kg
[1]; female, mouse, heart, iv, 5 mg/kg, read-out: Cl (converted)
  clearance: 41.2 mL/min/kg
[1]; [6]
  AUC: 14700 ng·h/mL
  half-life: 94.8 min
[1]; [7]
  AUC: 11500 ng·h/mL
  half-life: 15.1 min
  Vd: 0.491 L/kg
[1]; female, mouse, kidneys, iv, 5 mg/kg, read-out: Cl (converted)
  clearance: 7.27 mL/min/kg
[1]; [8]
  AUC: 1850 ng·h/mL
  half-life: 7.62 min
[1]; [9]
  AUC: 949 ng·h/mL
  half-life: 30.6 min
  Vd: 3.34 L/kg
[1]; female, mouse, liver, iv, 5 mg/kg, read-out: Cl (converted)
  clearance: 78.3 mL/min/kg
[1]; [10]
  AUC: 5710 ng·h/mL
  half-life: 21.8 min
[1]; [11]
  AUC: 4020 ng·h/mL
  half-life: 30.1 min
  Vd: 7.79 L/kg
[1]; female, mouse, lungs, iv, 5 mg/kg, read-out: Cl (converted)
  clearance: 20.6 mL/min/kg
[1]; female, mouse, plasma, intraperitoneal, based on AUC values, ip 10 mg/kg vs iv 5 mg/kg
  bioavailability: 28.9%
[1]; [12]
  AUC: 338 ng·h/mL
  half-life: 13.1 min
[1]; female, mouse, plasma, ip, 10 mg/kg, at 5 min
  concentration at 5 min: 542 ng/mL
[1]; female, mouse, plasma, ip, 10 mg/kg, at 2 h
  concentration at 2 h: 40.2 ng/mL
[1]; [13]
  AUC: 583 ng·h/mL
  half-life: 14.9 min
  Vd: 18.7 L/kg
[1]; female, mouse, plasma, single bolus iv dose 5 mg/kg, read-out: clearance rate (converted)
  clearance: 141 mL/min/kg
[1]; [14]
  AUC: 6500 ng·h/mL
  half-life: 104 min
[1]; [15]
  AUC: 2330 ng·h/mL
  half-life: 4.86 min
  Vd: 1.27 L/kg
[1]; female, mouse, spleen, iv, 5 mg/kg, read-out: Cl (converted)
  clearance: 33 mL/min/kg
[1]; heart, ip, 10 mg/kg
  Cl: 64.2 mL/min/kg
  Vss: 2.19 mL/g
[1]; ip, 10 mg/kg
  order of highest overall tissue concentrations: kidneys > spleen > lungs > liver > heart > brain
[1]; ip, 10 mg/kg, 4 h after administration
  concentration in plasma: undetectable levels
[1]; iv, 5 mg/kg
  order of highest overall concentrations in the tissues examined: kidneys > lungs > heart > spleen > plasma ≈ liver > brain
[1]; kidneys, ip, 10 mg/kg
  Cl: 13.7 mL/min/kg
  Vss: 0.801 mL/g
[1]; liver, ip, 10 mg/kg
  Cl: 64.2 mL/min/kg
[1]; lungs, ip, 10 mg/kg
  Cl: 31.3 mL/min/kg
  Vss: 10.32 mL/g
[1]; plasma, ip, 10 mg/kg
  Cl: 330 mL/min/kg
  Vss: 21.8 mL/g
[1]; plasma, iv, 5 mg/kg
  Cl: 141 mL/min/kg
[1]; spleen, ip, 10 mg/kg
  Cl: 15.5 mL/min/kg
  Vss: 0.78 mL/g
Panc-1 cells
  IC50: 110 ± 10 nM
